Measurements taken from US9616006B2, “Methods and compositions for treating dermatological diseases and conditions” (priority 2007, dated 2017).

How the values were obtained:
[1] = test system: human melanocyte cultures; experiment: Pigment in human melanocyte cultures; type: cell-based; conditions: treated for 9 days
tyrosinase [2] = experiment: DOPA oxidase assay of cell extracts from treated human melanocytes; type: cell-based; conditions: extracts of human melanocytes treated for 9 days
Protocol: Cell lysates were prepared from human melanocytes. The amount of tyrosinase in these cell lysates was determined by DOPA oxidase assay.
(§1) FIGS. 14-17 show the skin-lightening effects of topically-applied formulations of isoeugenol and its ester isoeugenol acetate (a.k.a. isoeugenyl acetate) in the treatment of hyperpigmented areas in the skin, wherein a reduction of melanin pigment in the skin is caused by the topical application of the formulations. In addition to blocking a post-tyrosinase step in melanin synthesis, IE and IE acetate can inhibit the expression of the tyrosinase protein in human melanocytes. […] If the cell extracts contain tyrosinase when an aliquot of extract is placed in a tube containing L-DOPA (a tyrosinase substrate) in buffer, the enzyme will convert the DOPA to melanin. The melanin will appear brownish-black in the assay tube. If IE or IE-acetate has inhibited tyrosinase synthesis in melanocytes, then the extracts from these cells will contain no enzyme and will not be able to produce melanin from DOPA in the assay tube. […] In this assay, cell extracts from human melanocytes either left untreated or treated with 200 micromolar of either IE or isoeugenol acetate for 9 days are run on SDS polyacrylamide electrophoresis gels to separate tyrosinase from other proteins. The tyrosinase in the gel is then blotted to a membrane and the tyrosinase detected by staining with a specific anti-tyrosinase antibody. The antibody-bound tyrosinase is then visualized by chemiluminescence.

tyrosinase [3] = experiment: Western immunoblot of tyrosinase abundance in human melanocyte extracts; type: cell-based
From the text: as §1

collagen 1 mRNA = experiment: Collagen mRNA in fibroblasts by RT-PCR; type: cell-based, human; conditions: fibroblast cell cultures treated 72 hours
From the text: (§2) The presently claimed and disclosed inventive concept(s) further contemplates use of various DHE, IE and EV compositions and salts, esters, ethers, and derivatives thereof to mitigate the effects of aging on the skin. For all aging studies, normal human fibroblast cell cultures were used. These cells normally produce collagen, elastin and hyaluronic acid. As the skin ages, the fibroblasts in the dermis lose their ability to produce these three key components of skin, and the skin consequently loses elasticity, thickness and smooth texture. In addition, as fibroblasts age, they increase the expression of certain enzymes that destroy collagen and elastin. There are about 13 of these enzymes, collectively referred to as MMPs (matrix metalloproteinases). One of the principal MMPs, MMP-1, is responsible for collagen degradation. […] Fibroblast cell cultures were treated with either IE, DHE or EV for 72 hours at which time the amount of collagen mRNA present in the cells was determined.

elastin mRNA = experiment: Elastin mRNA in human dermal fibroblasts by RT-PCR; type: cell-based; conditions: 72 hours
From the text: as §2, with “In addition, as fibroblasts age, they increase the expression of certain enzymes that destroy collagen and elastin.” left out, “The image is from an electrophoresis gel of DNA amplified by PCR from fibroblast mRNA. This gel was analyzed and” for “Fibroblast cell cultures were treated with either IE, DHE or EV for 72 hours at which time”, “density” for “amount”, “each band quantified by image analysis software.” for “collagen mRNA present in the cells was determined.”

[4] = test system: HAS-2 (Hyaluronic acid synthase-2); experiment: HAS-2 mRNA in fibroblasts by RT-PCR; type: cell-based, human; conditions: 72 hours
From the text: (§3) The presently claimed and disclosed inventive concept(s) further contemplates use of various DHE, IE and EV compositions and salts, esters, ethers, and derivatives thereof to mitigate the effects of aging on the skin. For all aging studies, normal human fibroblast cell cultures were used. These cells normally produce collagen, elastin and hyaluronic acid. As the skin ages, the fibroblasts in the dermis lose their ability to produce these three key components of skin, and the skin consequently loses elasticity, thickness and smooth texture. In addition, as fibroblasts age, they increase the expression of certain enzymes that destroy collagen and elastin. There are about 13 of these enzymes, collectively referred to as MMPs (matrix metalloproteinases). One of the principal MMPs, MMP-1, is responsible for collagen degradation. For experiments herein to determine the effects of DHE, IE and EV on collagen, elastin and hyaluronic acid, fibroblasts were treated with the compounds for 72 hours, mRNA was then isolated, and analyzed for abundance by RT-PCR (Reverse transcriptase-Polymerase Chain Reaction).
DHE, IE and EV, are also shown herein to stimulate mRNA for HAS-2. HAS-2 (Hyaluronic acid synthase-2) is the enzyme that manufactures hyaluronic acid (HA) in the skin. HA is a glycosaminoglycan important for maintaining moisture and suppleness in the skin. […] As the skin ages, the production of HA decreases and this causes the skin to sag and become thin.

TIMP-1 = TIMP-1 mRNA in fibroblasts by PCR; type: cell-based, human
From the text: as §3
Fibroblasts in the skin not only produce enzymes (MMPs) that destroy the skin matrix but they also produce proteins (Tissue Inhibitors of Metalloproteinases, i.e., TIMPS) that inhibit these enzymes. There are several TIMPs, but one that is most important for inhibiting MMPs is TIMP-1. […] Shown in FIG. 11 is PCR data showing the up-regulation of TIMP-1 mRNA by these compounds.

[5] = test system: MMP-1, MMP-3, MMP-8, MMP-9 MMP-10 and MMP-13; experiment: MMP protein abundance in human dermal fibroblasts (protein array blotting); type: cell-based
From the text: As mentioned above, as fibroblasts age they increase their production of MMP enzymes that destroy collagen and elastin, particularly collagenase, MMP-1. We utilized a protein array blotting technique to determine the effect of DHE, IE and EV on the protein abundance of these enzymes. As shown below, EV is able to reduce the level of several MMPs in human dermal fibroblasts, including MMP-1, MMP-3, MMP-8, MMP-9 MMP-10 and MMP-13 (FIG. 12). This remarkable effect makes this compound an ideal addition to an anti-aging product since MMP levels in aging skin are quite high.

[6] = type: physicochemical; conditions: water-oil emulsion
Protocol: This surprising and unexpected finding meant that it was necessary to identify a carrier/vehicle system that would accommodate EV in a soluble form and at the same time maintain its chemical stability (defined herein as at least 95% of the ethyl vanillin remaining chemically intact for at least 3 months). In one formulation contemplated herein, EV is dissolved in caprylic/capric triglyceride or other fatty acid triglyceride and then mixed into a silicone fluid wherein the silicone is the primary (greatest percentage) component of the formulation. The cosmetic silicone fluid used in this embodiment accepts the caprylic/capric triglyceride and allows the EV to remain in solution. […] Therefore, the presently claimed and disclosed inventive concept(s) contemplates formulations of EV in non-aqueous solutions, particularly comprising at least 20% to 25% to 30% to 35% to 40% to 45% to 50%, or up to 60%, 70%, 80% or 90% silicone thereby explicitly excluding water-in-oil, or oil-in-water, emulsions. Additionally, besides caprylic capric triglyceride, EV can be solubilized in jojoba oil, sunflower oil or squalane or any other solubilizer which is accepted by the silicones. […]

Structure (SMILES)	pigment in human melanocyte cultures [1]	tyrosinase activity / melanin made from L-DOPA by cell extracts (tyrosinase [2]; listed as IE-acetate)	tyrosinase activity / melanin made from L-DOPA by cell extracts (tyrosinase [2]; listed as TH-213)	tyrosinase abundance (relative densitometric units) (tyrosinase [3]; human melanocyte extracts, 200 μM, 9 days, control approximately 7.25 RDU) [RDU]	tyrosinase present (western immunoblot) (tyrosinase [3]; human melanocytes treated with 200 micromolar for 9 days)	collagen production (collagen mRNA) (collagen 1 mRNA)	elastin levels (elastin mRNA) (elastin mRNA)	mRNA for HAS-2 [4]	production of TIMP-1 (TIMP-1 mRNA) (TIMP-1)	level of several MMPs (protein abundance) [5]	time within which EV significantly decomposes [6] [h]
CC=Cc1ccc(OC(C)=O)c(OC)c1 [isoeugenol acetate]	loss of pigment	very little melanin was made	absence of tyrosinase activity	~3.75	almost no detectable tyrosinase	–	–	–	–	–	–
CCOc1cc(C=O)ccc1O [EV, ethyl vanillin]	–	–	–	–	–	stimulation	increase	stimulate	significantly stimulate	reduce	24 to 48
